Laboratory results reported in patent US20230278972A1, “SUBSTITUTED HALOALKYL SULFONANILIDE HERBICIDES” (FMC Corporation, priority 2020, published 2023).

Key:
Format in all cases: in vivo
[1] = test system: galium (catchweed bedstraw, Galium aparine); assay: Test A1 postemergence, galium; conditions: Postemergence
Method in brief: (§1)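 Herbicidal response was scored on plants treated either preemergence, by directed spray onto soil of a loam–sand blend after sowing, or postemergence on potted plants at the one- to two-leaf stage, 2–10 cm high. Test chemicals were carried in a non-phytotoxic solvent mix with surfactant.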

[2] = test system: blackgrass (Alopecurus myosuroides); assay: Test A1 postemergence, blackgrass; conditions: Postemergence, 0 to 100 scale (0 no effect, 100 complete control)
Method in brief: as §1

corn (Zea mays) = assay: Test A1 preemergence, corn
Method in brief: (§2)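 Plants grown in pots of loam/sand mix; preemergence = soil-directed spray on seeded pots, postemergence = spray at 1–2 leaves, height 2–10 cm; test chemicals formulated in non-phytotoxic solvent with surfactant.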

kochia (Bassia scoparia) = assay: Test A1 preemergence, kochia
Method in brief: (§3)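 Test compounds were formulated in a non-phytotoxic solvent mixture containing a surfactant. For preemergence, seeds sown in a loam soil–sand blend received a directed soil spray. For postemergence, potted plants in the same soil, 2 to 10 cm tall at the one- to two-leaf stage, were sprayed.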

[3] = test system: ragweed (common ragweed, Ambrosia artemisiifolia); assay: Test A1 postemergence, ragweed; conditions: Postemergence
Method in brief: as §2

soybean (Glycine max) = assay: Test A1 postemergence, soybean; conditions: Postemergence
Method in brief: as §1

[4] = test system: ducksalad (Heteranthera limosa); assay: Test B1 flooded paddy test, ducksalad; conditions: 250 g ai/ha, Flood, applied to paddy water, 2-leaf stage, visually evaluated after 10 to 14 days
Description: A dash (-) response means no test result.

[5] = test system: Ryegrass, Italian (Italian ryegrass, Lolium multiflorum); assay: Test A1 preemergence, Ryegrass, Italian
Method in brief: as §3

[6] = 31 g ai/ha, 0 to 100 scale (0 no effect, 100 complete control), 10 days
[7] = 31 g ai/ha, 0 to 100 scale (0 no effect, 100 complete control)
[8] = 125 g ai/ha, 0 to 100 scale, 0 no effect, 100 complete control

Compound	Plant response rating, Galium [1, 6]	Plant response rating, Galium ([1]; 125 g ai/ha, 0 to 100 scale)	Plant response rating, Blackgrass ([2]; 31 g ai/ha, 10 days)	Plant response rating, Blackgrass ([2]; 125 g ai/ha)	Plant response rating, Corn (corn (Zea mays); [7])	Plant response rating, Corn (corn (Zea mays); [8])	Plant response rating, Kochia (kochia (Bassia scoparia); [7])	Plant response rating, Kochia (kochia (Bassia scoparia); [8])	Plant response rating, Ragweed [3, 6]	Plant response rating, Ragweed ([3]; 125 g ai/ha, 0 to 100 scale)	Plant response rating, Soybean (soybean (Glycine max); [6])	Plant response rating, Soybean (soybean (Glycine max); 125 g ai/ha, 0 to 100 scale)	Plant response rating, Ducksalad (0 to 100 scale, 0 is no effect, 100 is complete control) [4]	Plant response rating, Ryegrass, Italian [5, 7]	Plant response rating, Ryegrass, Italian [5, 8]
Cc1c(C2=NO[C@@H]3CCC[C@H]23)cc(N(COC(=O)C(C)(C)C)S(=O)(=O)C(F)(F)F)c(C)c1C [Compound 336, [[(Trifluoromethyl)sulfonyl][2,3,4-trimethyl-5-[(3aR,6aR)-3a,5,6,6a-tetrahydro-4H-cyclopent[d]isoxazol-3-yl]phenyl]amino]methyl 2,2-dimethylpropanoate]	60	100	0	0	0	0	0	0	50	80	20	50	75	30	30
C#CCN(C)C(=O)c1cc(NS(=O)(=O)C(F)(F)F)c(Cl)c(F)c1C [Compound 337]	70	100	0	30	0	70	20	50	50	90	50	70	65	30	100
COCC1CC(c2cc(N(COC(=O)C(C)(C)C)S(=O)(=O)C(F)(F)F)c(C)cc2C)=NO1 (centres unmarked) [Compound 338]	50	50	0	0	10	50	0	10	30	70	10	40	40	30	30
CCOC1CC(c2cc(N(COC(=O)C(C)(C)C)S(=O)(=O)C(F)(F)F)c(C)cc2C)=NO1 (centres unmarked) [Compound 339]	30	50	0	30	0	0	0	90	40	70	0	10	65	30	50
Cc1cc(C)c(C2=NOC3(C)CCCC23)cc1NS(=O)(=O)C(F)(F)F (centres unmarked) [Compound 340]	50	80	0	20	0	90	–	60	70	80	50	60	45	50	100
Cc1cc(C)c(N(COC(=O)C(C)(C)C)S(=O)(=O)C(F)(F)F)cc1C1=NOC2(C)CCCC12 (centres unmarked) [Compound 341]	50	80	0	0	0	0	0	40	60	80	40	50	45	0	40
CCC1ON=C(c2cc(NS(=O)(=O)C(F)(F)F)c(C)cc2C)C1CC (centres unmarked) [Compound 343]	70	100	10	30	10	60	30	70	20	80	40	60	45	60	100
CCC1ON=C(c2cc(N(COC(=O)C(C)(C)C)S(=O)(=O)C(F)(F)F)c(C)cc2C)C1CC (centres unmarked) [Compound 344]	70	100	0	50	10	10	0	30	30	60	40	50	90	20	40
CCC1ON=C(c2cc(N(C(=O)OCC(C)C)S(=O)(=O)C(F)(F)F)c(C)cc2C)C1CC (centres unmarked) [Compound 345]	80	100	20	40	10	10	20	30	30	70	40	50	30	30	80
CCC1ON=C(c2cc(N(COC(=O)C(C)(C)C)S(=O)(=O)C(F)(F)F)c(C)cc2C)C1CC (centres unmarked) [Compound 347]	30	100	0	30	0	0	0	50	40	70	40	50	55	0	0
Cc1cc(C)c(C2=NOC3OCCC23)cc1NS(=O)(=O)C(F)(F)F (centres unmarked) [Compound 349]	100	100	40	70	20	100	80	100	70	90	30	70	80	70	80
Cc1cc(C)c(N(COC(=O)C(C)(C)C)S(=O)(=O)C(F)(F)F)cc1C(=O)N1CCC(F)(F)CC1 [Compound 350]	70	90	0	0	0	0	20	70	80	90	10	40	80	30	30
CCOC(=O)N(c1cc(C(=O)N2CCC(F)(F)CC2)c(C)cc1C)S(=O)(=O)C(F)(F)F [Compound 351]	80	100	0	80	0	0	20	90	70	90	30	50	70	40	90
Cc1cc(C)c(N(COC(=O)C(C)(C)C)S(=O)(=O)C(F)(F)F)cc1C1=NOC2OCCC12 (centres unmarked) [Compound 352]	100	100	0	20	10	50	30	100	70	90	20	60	65	20	100
CCOC(=O)N(c1cc(C(=O)N2CCC(C)CC2)c(C)cc1C)S(=O)(=O)C(F)(F)F [Compound 354]	40	80	0	0	0	0	0	20	40	50	50	60	60	20	70
